Earlier results in patent publication US20080168569A1, “Non-invasive methods and related compositions for identifying compounds that modify in vivo aggregations of disease-related polypeptides” (priority 2004, published 2008).

System: truncated DRPLA proteins that contain an expanded-polyglutamine domain
Conditions: in vitro; transglutaminase inhibitors

| Structure (SMILES) | formation of cellular aggregates of truncated DRPLA proteins |
| --- | --- |
| NCCSSCCN [cystamine] | inhibit the formation of cellular aggregates |
| CN(C)c1cccc2c(S(=O)(=O)NCCCCCN)cccc12 [monodansyl cadaverine] | inhibit the formation of cellular aggregates |
